Measured values published in patent US8324202B2, “5-phenyl-1H-benzo [E] [1,4] diazepine compounds substituted with an hydroxamic acid group as histone deacetylase inhibitors” (Universita Degli Studi di Firenze, priority 2007, dated 2012).

Assays:
Type in all cases: cell-based, human
acetylated H3 histone = test: Histone deacetylase inhibition: western blot for acetylated histone H3 in cells incubated 6 hours with drug; conditions: for Acetyl-H3 densitometric value: 6 hours, untreated = 1; for H3 histone acetylating activity, in words: summary in description
Description: (§1) The new described compounds were tested for their ability to inhibit the histone deacetylase activity by western blot for the acetylated isoforms of histone H3 and H4 and also to induce growth arrest in cancer cells by activating apoptosis and/or cell differentiation. Initially, biological activities of newly synthesized HDACi were assessed by using the human acute promyelocytic leukemia cell line NB4, as the experimental model. Cells were maintained in RPMI (Bio-Whittaker Europe, Verviers, Belgio) supplemented with 10% of fetal calf serum (FCS, Boehringer Mannheim, Germania) and 2 mM glutamine (Merck, Darmstadt, Germania) at 37° C. in a humidified atmosphere of 5% CO2. Cells were counted in a Burker chamber and cells viability was assessed by the trypan blu exclusion test.
(§2) Cells, obtained as described above, were harvested in sterile plates (Falcon, Becton Dickinson, Franklin Lakes, N.J.) at density of 6×10^5/mL, and incubated for 6 hours with increasing drug concentration of single compounds. Then, the cells were lysated with RIPA buffer (50 mM Tris-HCl pH 7.4, 150 mM NaCl, 1% Nonidet P-40, 1 mM EDTA plus protease inhibitor cocktail (Protease Inhibitor Cocktail Set III, n° cat. 539134, Calbiochem, Merck, Darmstadt, Germany) and sonicated (Labsonic 1510) twice for 15s pulses at 1-2 Watts in ice. Protein concentration of cell extracts was determined according to the bicinchoninic acid colorimetric method (BCA, Pierce, Rockford, USA) by using serum bovine albumin as the standard (BSA, Sigma, Steinheim, Germania). Equal amounts of protein (20-40 μg/20-30 μL/well) were separated on NuPAGE Bis-Tris 12% gel (Novex, Invitrogen, Carlsbad, Calif.) 10% and transferred to nitrocellulose membranes (Pro-Bind, pore diameter=0.45 μm; Amersham Pharmacia). Then membranes, incubated in phosphate buffer saline (PBS) with 6% defatted dry milk as blocking solution to saturate unspecific binding sites, were probed overnight at 4° C. with primary antibodies (1;1000 dilution in PBS) raised against acetylated H4 a H3 histone isoforms (Upstate Technologies, Lake Placid, N.Y., USA). […] The experiment was performed with the compound (II) S form, where R1 and R2 can be independently a methyl group or hydrogen.

NB4 cells [1] = test: Cytostatic and apoptotic activity, Annexin-V-FLUOS/propidium iodide flow cytometry, 48 hours; conditions: for IC50: Homo sapiens, NB-4, 48 hours, graphic extrapolation of Annexin-V results, viable cells over control, read-out: IC50 (drug concentration reducing cell density or viability by 50%); for apoptotic activity, in words: leukemic cells, summary in description
Description: as §1
Cells, were initially harvested at 4×10^5/mL (3 mL/well) cell density 24 well plate and incubated for 48 hours with increasing drug concentration. All compounds were solubilized in DMSO so that the final concentration of vehicle in culture was lower than 0.1%. At the end of treatment cell viability and apoptosis were evaluated by cytofluorimetric analysis using Anexin-V-Fluos staining (Annexin-V-FLUOS Staining Kit, Roche Molecular Biochemicals, Mannheim, Germany).
Necrotic cells, which are also Annexin-V positive, were identified by using Propidium iodide fluorochrome, that is capable of penetrating cell membranes of dying or dead cells and binding DNA.
Briefly, aliquots of cell suspensions (approximately 10^5 cells) washed in buffer PBS, were resuspended in 5 μl of binding buffer containing annexin V-fluorescein isothiocyanate (FITC) and propidium iodide; incubation was carried out for 15 minutes at room temperature, and cells were then analyzed by flow cytometry (FACScan Becton-Dickinson, San Jose, Calif.).
The IC50 values (i.e. the drug concentration necessary to reduce cell density or viability by 50% as compared to untreated control cultures) obtained by graphic extrapolation of the Anexin-V results and expressed as percentage of viable cells over control were reported In Table 2.
Data represent the percentage of viable cells as the function of drug concentration.

NB4 cells [2] = test: Granulocytic differentiation, NBT reduction assay, alone or with ATRA; conditions: three days
Description: The analysis of functional myeloid differentiation induced by compounds of the invention was accomplished by Nitro-Blu tetrazolium (NBT) reduction assay as described below. Cell suspension (approximately 10^5/mL) were incubated in the presence of 0.25 mg/mL NBT and 500 ng of PMA (Phorbol-12-Myristate 13-acetate) (Sigma) at 37° C. for 30 minutes. Granulocyte or monocyte differentiated cell were capable of reducing NBT to dark formazan precipitate (blu positive cells). NBT positive cells were counted on Burker chamber and expressed as percentage of total cell population.
(§3) • Compounds (II) in racemic form and enantiomers S or R. • Compounds (III) in racemic form and enantiomers S or R. • Compounds (II) with R1 and R2=hydrogen were tested for their capability to synergize with ATRA and for their ability to induce granulocyte differentiation in the human promyelocytic cell line NB4. ATRA at the final concentration of 1 μM is usually employed to induce granulocyte differentiation in NB4 cells.
(§4) NB4 cells were incubated for three days in presence of the compounds listed above, alone or in combination with ATRA. Granulocyte differentiation of leukemic cells was determined by (a) Nitro-Blu tetrazolium (NBT) reduction to dark formazan precipitate (blu positive cells) counting NBT positive cells on Burker chamber and (b) cytofluorimetric analysis of CD11b membrane expression (granulocyte marker, see example 32).

acetylated H4 histone = test: Histone deacetylase inhibition: western blot for acetylated histone H4 in cells incubated 6 hours with drug; conditions: for Acetyl-H4 densitometric value: 6 hours, untreated = 0; for H4 histone acetylating activity, in words: summary in description
Description: as §1, §2

NB4 cells [3] = test: Granulocytic differentiation, cytofluorimetric analysis of CD11b membrane expression, alone or with ATRA; conditions: for % of CD11b+ cells: three days; for effect on CD11b positive cells, in words: alone or in combination with 20 nM ATRA
Description: Identification of markers of myeloid maturation was determined by flow cytometry by labelling cells with PE-conjugated antibody and FITC-conjugated antibody to CD11b (granulocyte marker) and CD14 (monocyte marker) respectively (Becton-Dickinson). Cell suspension aliquots (1×10^5 cells) were washed with cell wash buffer (Becton-Dickinson) and incubated with antibodies for 30 minutes in ice. After the incubation cells, resuspended in 0.3 mL of buffer containing Actinomycin D (Becton-Dickinson) to evaluate cell viability, were submitted to the cytofluorimetric analysis (FACScan, Becton-Dickinson). Cells incubated with appropriately labeled isotype controls were used to gate nonspecific fluorescence signal.
as §3, §4

NB4 cells [4] = test: Morphologic evaluation of apoptosis, May-Grünwald-Giemsa stained cytosmears; conditions: FIG. 1 panel C, magnification ×650
Description: Cells were fixed with acid acetic/methanol (⅓, v/v), then 20 μL of fixed cell suspension were placed on glass slide and let dry for 24 h. The cytosmears were stained with May-Grünwald-Giemsa and apoptotic cells were identified according to the typical morphologic parameters such as nuclear fragmentation, reduction of cell volume and apoptotic bodies. Image analyses were obtained by using a Nikon Eclipse 50i microscope equipped with a Nikon Digital Sight DS -5M (Nikon Corporation, Tokyo, Japan).

Row | Structure (SMILES) | Acetyl-H3 densitometric value (acetylated H3 histone; 0.5 μM) | Acetyl-H3 densitometric value (acetylated H3 histone; 1 μM) | Acetyl-H3 densitometric value (acetylated H3 histone; 2.5 μM) | IC50 (NB4 cells [1]) | apoptotic activity, in words (NB4 cells [1]) | % of NBT+ cells (NB4 cells [2]; 1.5 μM compound + 20 nM ATRA) | % of NBT+ cells (NB4 cells [2]; 1.5 μM compound alone) | % of NBT+ cells (NB4 cells [2]; 3 μM compound + 20 nM ATRA) | % of NBT+ cells (NB4 cells [2]; 3 μM compound alone) | Acetyl-H4 densitometric value (acetylated H4 histone; 0.5 μM) | Acetyl-H4 densitometric value (acetylated H4 histone; 1 μM) | Acetyl-H4 densitometric value (acetylated H4 histone; 2.5 μM) | H4 histone acetylating activity, in words (acetylated H4 histone) | % of CD11b+ cells (NB4 cells [3]; 1.5 μM compound + 20 nM ATRA) | % of CD11b+ cells (NB4 cells [3]; 1.5 μM compound alone) | % of CD11b+ cells (NB4 cells [3]; 3 μM compound + 20 nM ATRA) | % of CD11b+ cells (NB4 cells [3]; 3 μM compound alone) | effect on CD11b positive cells, in words (NB4 cells [3]) | H3 histone acetylating activity, in words (acetylated H3 histone) | further results
1 | CN1C(=O)CN=C(c2ccccc2)c2cc(C#CCCCC(=O)NO)ccc21 [Compound (II) R1 and R2 = hydrogen, 6-(1-methyl-2-oxo-5-phenyl-2,3-dihydro-1H-benzo[e][1,4]diazepin-7-yl)-N-hydroxyhex-5-ynamide] | 2.26 arbitrary units | 2.41 arbitrary units | 2.836 arbitrary units | 4.9 µM | excellent apoptotic activity | 45% | 2% | 80% | 3% | 1.3 arbitrary units | 1.8 arbitrary units | 4 arbitrary units | good H4 histone acetylating activity | 74.3% | 44% | 94.7% | 69.3% | significant and dose-dependent increase in the amount of CD11b positive cells | – | –
2 | C[C@@H]1N=C(c2ccccc2)c2cc(C#CCCCC(=O)NO)ccc2N(C)C1=O [Compound (II) S form with R1 or R2 = Me, (S)-6-(1,3-dimethyl-2-oxo-5-phenyl-2,3-dihydro-1H-benzo[e][1,4]diazepin-7-yl)-N-hydroxyhex-5-ynamide] | 2.88 arbitrary units | 3.85 arbitrary units | 5.23 arbitrary units | 1.7 µM | – | 41% | ≦1% | – | – | 1 arbitrary units | 1.33 arbitrary units | 12.96 arbitrary units | facilitating, in its enantiomerically pure (S) form, H4 histone acetylation | 62.3% | 36.3% | – | – | – | good activity to induce H3 histone acetylation in a dose-dependent way | morphology of treated cells (apoptosis) (NB4 cells [4]): massive nuclear fragmentation suggestive of a typical apoptotic process
3 | C[C@H]1N=C(c2ccccc2)c2cc(NC(=O)CCCCCCC(=O)NO)ccc2N(C)C1=O [Compound (III) R form with R1 or R2 = Me, (R)—N1-(1,3-dimethyl-2-oxo-5-phenyl-2,3-dihydro-1H-benzo[e][1,4]diazepin-7-yl)-N8-hydroxyoctanediamide] | – | 4.46 arbitrary units | – | 3.7 µM | high apoptotic activity | – | – | 70% | 3% | – | 17.78 arbitrary units | – | excellent H4 histone acetylating activity | – | – | 80% | 39.3% | augmented the percentage of CD11b positive cells | good H3 histone acetylating activity | Acetyl-H3 densitometric value (acetylated H3 histone; 2 μM): 6.85 arbitrary units; Acetyl-H3 densitometric value (acetylated H3 histone; 5 μM): 7.27 arbitrary units; Acetyl-H4 densitometric value (acetylated H4 histone; 2 μM): 29.63 arbitrary units; Acetyl-H4 densitometric value (acetylated H4 histone; 5 μM): 34.07 arbitrary units
